Experimental findings from patent publication US20130219529A1, “PROBE FOR A HAIR CELL, AND LABELLING METHOD FOR A HAIR CELL USING THE PROBE FOR A HAIR CELL” (CANON KABUSHIKI KAISHA, priority 2008, published 2013) are described below.

Data set [1] has as its system hair cell (neuromast) of Zebrafish. Briefly: Staining of hair cell (neuromast) of Zebrafish juveniles with probe, fluorescence stereomicroscope image visually evaluated. Further details: Fluorescence intensity: key to the marks not given beside the values. The note with it: dye concentration 1 μg/mL; for Pattern of the neuromast stained (FIGS. 1 to 3): Zebrafish juveniles, in words; for Fluorescence intensity / Staining pattern: 1 hour, Zebrafish juveniles Day 7 after fertilization. The data set is classed as in vivo. The procedure: A staining compound (1) was dissolved in DMSO to prepare a stock solution at a concentration of 1 mg/mL. The stock solution was diluted with distilled water to prepare a hair cell staining solution 1 having a dye concentration of 1 μg/mL. Further, Egg Water was prepared by dissolving artificial seawater SEALIFE (manufactured by Marinetech Co., Ltd.) in distilled water at a concentration of 60 mg/L. Five juveniles (embryos on Day 7 after fertilization) of Zebrafish were placed into any one of wells of a 24-well multiwell plate together with feeding water. The feeding water was discharged and 1 mL of the hair cell staining solution 1 was added. After the whole had been left to stand for 1 hour, the hair cell staining solution 1 in the well was discharged and replaced by 1 mL of fresh Egg Water. In addition, such an operation that Egg Water was discharged and replaced by 1 mL of fresh Egg Water was repeated twice. One of the juveniles was taken out from the well onto a dish, the motion of the juvenile was restricted by addition of methylcellulose, and a fluorescence image was captured with a fluorescence stereomicroscope. MZ16FA manufactured by Leica Microsystems K.K. was used as a stereoscopic microscope.
An image pickup unit (a digital camera DP72 for a microscope manufactured by Olympus Corporation) of a fluorescence stereomicroscope was remodeled by removing an IR cut filter so as to capture a fluorescence image in a near-infrared wavelength region.

Data set [2] is described as follows: Excitation and fluorescence emission wavelength measured with fluorescence spectrophotometer. The data set is classed as physicochemical. As to conditions: aqueous solution, 10 mg/mL DMSO solution diluted 500-fold with purified water.

Turning to `O=S(=O)(O)CCN1/C(=C\C=C\c2oc3ccc(-c4ccccc4)cc3[n+]2CCS(=O)(=O)O)Oc2ccc(-c3ccccc3)cc21` [Staining compound 25], the “Pattern of the neuromast stained (FIGS. 1 to 3)” value (“Pattern of the neuromast stained” for short) in data set [1] is on record as “a portion with a smaller neuromast is selectively stained”.
In the case of `COc1ccc2cc(N3c4ccc(/C=C/c5sc6ccccc6[n+]5CC(=O)O)cc4C4CCCC43)ccc2c1` (stereo not drawn) [compound 4], the Fluorescence intensity result in data set [1] is on record as “+++”. In data set [2], this compound showed an Excitation wavelength λex of 401 nm and a Fluorescence emission wavelength λem of 516 nm.
With `CCN1C=C/C(=C/C=C/c2oc3ccccc3[n+]2CC)c2ccccc21` [Staining compound 50], the “Pattern of the neuromast stained” value in data set [1] is given as “a portion with a bigger neuromast is selectively stained”.
`CCC(=C\c1sc2c3ccccc3ccc2[n+]1CC)/C=C1/Sc2c(ccc3ccccc23)N1CC` [compound 40]: the Fluorescence intensity result in data set [1] is listed as “+++”. For the same compound, in data set [2], the Excitation wavelength λex stood at 344 nm and the Fluorescence emission wavelength λem worked out at 381 nm.
For the compound `CC1(C)C(/C=C/c2ccc3c(c2)C2CCCC2N3c2ccc(C=C(c3ccccc3)c3ccccc3)cc2)=[N+](CCC(=O)O)c2ccccc21` (stereo not drawn) [compound 51], in data set [1], the Fluorescence intensity result is “+++” and the Staining pattern result is “S”. In data set [2], the Excitation wavelength λex came to 611 nm and the Fluorescence emission wavelength λem amounted to 720 nm.
As for `O=C(O)C[n+]1c(/C=C/c2ccc3c(c2)C2CCCC2N3c2ccccc2)sc2ccccc21` (stereo not drawn) [compound 6], in data set [1], the Fluorescence intensity result was “+++”. For the same compound, in data set [2], the Excitation wavelength λex came to 545 nm and the Fluorescence emission wavelength λem was 636 nm.
As for `COc1ccc(N2c3ccc(/C=C/C4=[N+](C)c5ccccc5C4(C)C)cc3C3CCCC32)cc1` (stereo not drawn) [Staining compound 53], in data set [1], the “Pattern of the neuromast stained” value was “both a portion with a bigger neuromast and a portion with a smaller neuromast are simultaneously stained”.
Turning to `CC/N=c1\cc2oc3cc(NCC)c(C)cc3c(-c3ccccc3C(=O)OCC)c-2cc1C` [compound 54], in data set [1], the Fluorescence intensity result was “+++”. In data set [2], this compound displayed an Excitation wavelength λex of 528 nm and a Fluorescence emission wavelength λem of 550 nm.
Consider `CN1/C(=C\C=C\C2=[N+](C)c3ccccc3C2(C)C)C(C)(C)c2ccccc21` [compound 43], for which the Fluorescence intensity result in data set [1] was “+++”. For the same compound, in data set [2], the Excitation wavelength λex amounted to 473 nm and the Fluorescence emission wavelength λem is 564 nm.
Regarding `COc1ccc(N2c3ccc(/C=C/c4sc5ccccc5[n+]4CC(=O)O)cc3C3CCCC32)cc1` (stereo not drawn) [compound 8], the Fluorescence intensity entry in data set [1] is “+++”. In data set [2], this compound showed an Excitation wavelength λex of 560 nm and a Fluorescence emission wavelength λem of 677 nm.
Turning to `CCN1C=C/C(=C\C=c2\s/c(=C/c3sc4ccccc4[n+]3CC)n(CC)c2=O)c2ccccc21` [compound 70], the Fluorescence intensity entry in data set [1] is “+++”. In data set [2], this compound displayed an Excitation wavelength λex of 660 nm and a Fluorescence emission wavelength λem of 690 nm.
Consider `O=C(O)C[n+]1c(/C=C/c2ccc3c(c2)C2CCCC2N3c2ccc(C=C(c3ccccc3)c3ccccc3)cc2)oc2ccccc21` (stereo not drawn) [compound 1], for which the Fluorescence intensity entry in data set [1] is listed as “+++”. For the same compound, in data set [2], the Excitation wavelength λex amounted to 570 nm and the Fluorescence emission wavelength λem was found to be 657 nm.
Consider `CCC(=C\c1oc2ccc(-c3ccccc3)cc2[n+]1CC)/C=C1/Oc2ccc(-c3ccccc3)cc2N1CC` [compound 16], for which, in data set [1], the Fluorescence intensity result was “+++” and the Staining pattern entry is recorded as “S”. In data set [2], the Excitation wavelength λex turned out to be 459 nm and the Fluorescence emission wavelength λem amounted to 564 nm.
Take `COc1ccc(N2c3ccc(/C=C/C4=[N+](C)c5ccccc5C4(C)C)cc3C3CCCC32)cc1` (stereo not drawn) [compound 53]: the Fluorescence intensity entry in data set [1] was “+++”. In data set [2], this compound had an Excitation wavelength λex of 614 nm and a Fluorescence emission wavelength λem of 669 nm.
Regarding `CCN1/C(=C/C=C/C=C/C=C/C2=[N+](CC)c3ccccc3C23CCCCC3)C2(CCCCC2)c2ccccc21` [compound 67], in data set [1], the Fluorescence intensity result was “+++”. Moreover, in data set [2], the Excitation wavelength λex is 750 nm and the Fluorescence emission wavelength λem stood at 780 nm.
As to `CCC[N+](CCC)=c1ccc2c(-c3ccccc3S(=O)(=O)O)c3ccc(Nc4c(C)cccc4C)cc3oc-2c1.[Na+]` [compound 60], the Fluorescence intensity result in data set [1] is “+++”. Besides, in data set [2], the Excitation wavelength λex amounted to 509 nm and the Fluorescence emission wavelength λem is 578 nm.
On to `O=S(=O)(O)c1ccccc1-c1c2cc/c(=N/CCO)cc-2oc2cc(NCCO)ccc12` [compound 58], for which, in data set [1], the Fluorescence intensity result is “+++”. In data set [2], this compound yielded an Excitation wavelength λex of 480 nm and a Fluorescence emission wavelength λem of 509 nm.
For `CN1/C(=C/C=C/C=C/C=C/C2=[N+](C)c3ccccc3C2(C)C)C(C)(C)c2ccccc21` [compound 68], in that order: “+++”, 730 nm and 760 nm.
For the compound `CCN1/C(=C\C(C)=C\c2sc3c4ccccc4ccc3[n+]2CC)Sc2c1ccc1ccccc21` [compound 47], the Fluorescence intensity result in data set [1] is on record as “+++”. In data set [2], this compound showed an Excitation wavelength λex of 354 nm and a Fluorescence emission wavelength λem of 469 nm.
For `CCCC/N=c1/ccc2c(-c3ccccc3S(=O)(=O)O)c3ccc(NCCCC)cc3oc-2c1` [compound 63], in that order: “+++”, 490 nm and 560 nm.
For `CCN1/C(=C\C(C)=C\c2sc3ccccc3[n+]2CC)Sc2ccccc21` [compound 45], in that order: “+++”, 560 nm and 628 nm.
Consider `CCN1C=C/C(=C/C=C/c2oc3ccccc3[n+]2CC)c2ccccc21` [compound 50], for which the Fluorescence intensity entry in data set [1] is “+++”. In data set [2], this compound yielded an Excitation wavelength λex of 571 nm and a Fluorescence emission wavelength λem of 620 nm.
With `O=S(=O)(O)CCN1/C(=C\C=C\c2oc3ccc(-c4ccccc4)cc3[n+]2CCS(=O)(=O)O)Oc2ccc(-c3ccccc3)cc21` [compound 25], in data set [1], the Fluorescence intensity entry is listed as “+++” and the Staining pattern result is given as “S”. In addition, in data set [2], the Excitation wavelength λex came to 470 nm and the Fluorescence emission wavelength λem turned out to be 558 nm.
Take `CN1\C(=C/C=C/C=C/C2=[N+](C)c3ccc4ccccc4c3C2(C)C)C(C)(C)c2c1ccc1ccccc21` [compound 69]: the Fluorescence intensity result in data set [1] is “+++”. In data set [2], this compound gave an Excitation wavelength λex of 670 nm and a Fluorescence emission wavelength λem of 700 nm.
For `O=C(O)C[n+]1c(/C=C/c2ccc3c(c2)C2CCCC2N3Cc2ccccc2)sc2ccccc21` (stereo not drawn) [compound 15], in that order: “+++”, 566 nm and 611 nm.
As for `CC(=C\c1oc2ccccc2[n+]1CCC(=O)O)/C=C1/Oc2ccccc2N1CCC(=O)O` [compound 28], the Fluorescence intensity result in data set [1] is recorded as “+++”. Also, in data set [2], the Excitation wavelength λex amounted to 429 nm and the Fluorescence emission wavelength λem came to 503 nm.
In the same order, the values of `CCC(=C\c1sc2ccccc2[n+]1CC)/C=C1/Sc2ccccc2N1CC` [compound 39] are “+++”, 563 nm and 569 nm.
With `CCCCNS(=O)(=O)c1ccc(-c2c3ccc(=[N+](CC)CC)cc-3oc3cc(N(CC)CC)ccc23)c(S(=O)(=O)O)c1.[Na+]` [compound 57], the Fluorescence intensity entry in data set [1] is given as “+++”. Besides, in data set [2], the Excitation wavelength λex was 570 nm and the Fluorescence emission wavelength λem turned out to be 589 nm.
